From US9487515B2, “Compounds modulating c-fms and/or c-kit activity and uses therefor” (Plexxikon Inc., priority 2006, dated 2016) come the findings set out here.

By IC50 is commonly meant the concentration needed to halve the response being measured. Low readings indicate higher potency, high ones lower potency.

The target of this experiment is c-kit (Homo sapiens, UniProt P10721). In words: c-kit assays of Examples 40 and 41 (AlphaScreen kinase assays at 10 and 100 μM ATP, 33P-ATP filter assay, M-07e SCF-stimulated proliferation and phosphorylation).
Sequence of c-kit (P10721 with tags, fused parts or gaps): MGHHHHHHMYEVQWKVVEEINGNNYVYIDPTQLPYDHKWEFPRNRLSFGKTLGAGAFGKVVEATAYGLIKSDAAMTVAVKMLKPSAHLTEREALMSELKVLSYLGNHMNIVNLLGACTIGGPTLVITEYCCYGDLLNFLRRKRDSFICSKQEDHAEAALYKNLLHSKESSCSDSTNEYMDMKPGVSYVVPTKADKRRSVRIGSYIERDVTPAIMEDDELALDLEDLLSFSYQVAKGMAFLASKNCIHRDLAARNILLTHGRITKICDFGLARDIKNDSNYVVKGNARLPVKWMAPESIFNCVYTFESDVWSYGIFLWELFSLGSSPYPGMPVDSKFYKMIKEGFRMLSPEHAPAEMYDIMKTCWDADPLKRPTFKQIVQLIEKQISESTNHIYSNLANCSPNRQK
The compound `Fc1cc(C(F)(F)F)ccc1CNc1ccc(Cc2c[nH]c3ncccc23)cn1` [P-0344, (2-Fluoro-4-trifluoromethyl-benzyl)-[5-(1H-pyrrolo[2,3-b]pyridin-3-ylmethyl)-pyridin-2-yl]-amine] showed a 50% inhibitory concentration (IC50) of less than 1000 nM.
The value for `Fc1cc(Cl)ccc1CNc1ccc(Cc2c[nH]c3ncccc23)cn1` [P-0345, (4-Chloro-2-fluoro-benzyl)-[5-(1H-pyrrolo[2,3-b]pyridin-3-ylmethyl)-pyridin-2-yl]-amine] was less than 1000 nM.
Turning to `Fc1cc(CNc2ccc(Cc3c[nH]c4ncccc34)cn2)cc(C(F)(F)F)c1` [P-0346, (3-Fluoro-5-trifluoromethyl-benzyl)-[5-(1H-pyrrolo[2,3-b]pyridin-3-ylmethyl)-pyridin-2-yl]-amine], the concentration for half-maximal inhibition (IC50) is less than 1000 nM.
With `c1cnc(N2CCOCC2)c(CNc2ccc(Cc3c[nH]c4ncccc34)cn2)c1` [P-0347, (2-Morpholin-4-yl-pyridin-3-ylmethyl)-[5-(1H-pyrrolo[2,3-b]pyridin-3-ylmethyl)-pyridin-2-yl]-amine], the half-maximal inhibitory concentration (IC50) was less than 1000 nM.
Then `FC(F)(F)c1cc(CNc2ccc(Cc3c[nH]c4ncccc34)cn2)ccc1Cl` [P-0348, (4-Chloro-3-trifluoromethyl-benzyl)-[5-(1H-pyrrolo[2,3-b]pyridin-3-ylmethyl)-pyridin-2-yl]-amine], with less than 1000 nM; and `Fc1ccc(C(F)(F)F)cc1CNc1ccc(Cc2c[nH]c3ncccc23)cn1` [P-0350, (2-Fluoro-5-trifluoromethyl-benzyl)-[5-(1H-pyrrolo[2,3-b]pyridin-3-ylmethyl)-pyridin-2-yl]-amine], with less than 1000 nM.
Regarding `Clc1cccc(CNc2ccc(Cc3c[nH]c4ncccc34)cn2)c1Cl` [P-0351, (2,3-Dichloro-benzyl)-[5-(1H-pyrrolo[2,3-b]pyridin-3-ylmethyl)-pyridin-2-yl]-amine], the IC50 is less than 1000 nM.
Then `COc1cccc(CNc2ccc(Cc3c[nH]c4ncccc34)cn2)c1F` [P-0352, (2-Fluoro-3-methoxy-benzyl)-[5-(1H-pyrrolo[2,3-b]pyridin-3-ylmethyl)-pyridin-2-yl]-amine], with less than 1000 nM; and `Fc1c(Cl)cccc1CNc1ccc(Cc2c[nH]c3ncccc23)cn1` [P-0354, (3-Chloro-2-fluoro-benzyl)-[5-(1H-pyrrolo[2,3-b]pyridin-3-ylmethyl)-pyridin-2-yl]-amine], with less than 1000 nM; and `Fc1ccc(CNc2ccc(Cc3c[nH]c4ncccc34)cn2)nc1` [P-0355, (5-Fluoro-pyridin-2-ylmethyl)-[5-(1H-pyrrolo[2,3-b]pyridin-3-ylmethyl)-pyridin-2-yl]-amine], with less than 1000 nM.
The value for `Fc1cc(F)cc(CNc2ccc(Cc3c[nH]c4ncccc34)cn2)c1` [P-0356, (3,5-Difluoro-benzyl)-[5-(1H-pyrrolo[2,3-b]pyridin-3-ylmethyl)-pyridin-2-yl]-amine] was less than 1000 nM; that for `CCCOc1ccccc1CNc1ccc(Cc2c[nH]c3ncccc23)cn1` [P-0357, (2-Propoxy-benzyl)-[5-(1H-pyrrolo[2,3-b]pyridin-3-ylmethyl)-pyridin-2-yl]-amine] was less than 1000 nM; that for `c1ccc(N2CCOCC2)c(CNc2ccc(Cc3c[nH]c4ncccc34)cn2)c1` [P-0358, (2-Morpholin-4-yl-benzyl)-[5-(1H-pyrrolo[2,3-b]pyridin-3-ylmethyl)-pyridin-2-yl]-amine] was less than 1000 nM.
Turning to `COc1cccc(CNc2ccc(Cc3c[nH]c4ncccc34)cn2)c1Cl` [P-0359, (2-Chloro-3-methoxy-benzyl)-[5-(1H-pyrrolo[2,3-b]pyridin-3-ylmethyl)-pyridin-2-yl]-amine], the IC50 was less than 1000 nM.
Consider `c1ccc(OCCN2CCOCC2)c(CNc2ccc(Cc3c[nH]c4ncccc34)cn2)c1` [P-0361, [2-(2-Morpholin-4-yl-ethoxy)-benzyl]-[5-(1H-pyrrolo[2,3-b]pyridin-3-ylmethyl)-pyridin-2-yl]-amine], for which the IC50 was less than 1000 nM.
The value for `Fc1cccc(CNc2ccc(Cc3c[nH]c4ncccc34)cn2)c1F` [P-0362, (2,3-Difluoro-benzyl)-[5-(1H-pyrrolo[2,3-b]pyridin-3-ylmethyl)-pyridin-2-yl]-amine] was less than 1000 nM; that for `FC(F)(F)c1cccc(CNc2ccc(Cc3c[nH]c4ncccc34)cn2)c1Cl` [P-0363, (2-Chloro-3-trifluoromethyl-benzyl)-[5-(1H-pyrrolo[2,3-b]pyridin-3-ylmethyl)-pyridin-2-yl]-amine] was less than 1000 nM; that for `Fc1c(CNc2ccc(Cc3c[nH]c4ncccc34)cn2)cccc1C(F)(F)F` [P-0365, (2-Fluoro-3-trifluoromethyl-benzyl)-[5-(1H-pyrrolo[2,3-b]pyridin-3-ylmethyl)-pyridin-2-yl]-amine] was less than 1000 nM.
Consider `COc1ccc(F)cc1CNc1ccc(Cc2c[nH]c3ncccc23)cn1` [P-0366, (5-Fluoro-2-methoxy-benzyl)-[5-(1H-pyrrolo[2,3-b]pyridin-3-ylmethyl)-pyridin-2-yl]-amine], for which the IC50 was less than 1000 nM.
Then `FC(F)Oc1ccccc1CNc1ccc(Cc2c[nH]c3ncccc23)cn1` [P-0367, (2-Difluoromethoxy-benzyl)-[5-(1H-pyrrolo[2,3-b]pyridin-3-ylmethyl)-pyridin-2-yl]-amine], with less than 1000 nM.
`Cc1ccc(CNc2ccc(Cc3c[nH]c4ncccc34)cn2)c(F)c1` [P-0368, (2-Fluoro-4-methyl-benzyl)-[5-(1H-pyrrolo[2,3-b]pyridin-3-ylmethyl)-pyridin-2-yl]-amine]: the IC50 was less than 1000 nM.
Then `CN(C)CCCOc1ccccc1CNc1ccc(Cc2c[nH]c3ncccc23)cn1` [P-0369, [2-(3-Dimethylamino-propoxy)-benzyl]-[5-(1H-pyrrolo[2,3-b]pyridin-3-ylmethyl)-pyridin-2-yl]-amine], with less than 1000 nM; and `COc1ccc(CNc2ccc(Cc3c[nH]c4ncccc34)cn2)c(OC)n1` [P-0370, (2,6-Dimethoxy-pyridin-3-ylmethyl)-[5-(1H-pyrrolo[2,3-b]pyridin-3-ylmethyl)-pyridin-2-yl]-amine], with less than 1000 nM.
The value for `COc1ccc(F)c(CNc2ccc(Cc3c[nH]c4ncccc34)cn2)c1` [P-0371, (2-Fluoro-5-methoxy-benzyl)-[5-(1H-pyrrolo[2,3-b]pyridin-3-ylmethyl)-pyridin-2-yl]-amine] was less than 1000 nM.
Then `Cc1cc(F)ccc1CNc1ccc(Cc2c[nH]c3ncccc23)cn1` [P-0372, (4-Fluoro-2-methyl-benzyl)-[5-(1H-pyrrolo[2,3-b]pyridin-3-ylmethyl)-pyridin-2-yl]-amine], with less than 1000 nM; and `Fc1cc(Cl)cc(CNc2ccc(Cc3c[nH]c4ncccc34)cn2)c1` [P-0373, (3-Chloro-5-fluoro-benzyl)-[5-(1H-pyrrolo[2,3-b]pyridin-3-ylmethyl)-pyridin-2-yl]-amine], with less than 1000 nM; and `Fc1ccc(C(F)(F)F)c(CNc2ccc(Cc3c[nH]c4ncccc34)cn2)c1` [P-0375, (5-Fluoro-2-trifluoromethyl-benzyl)-[5-(1H-pyrrolo[2,3-b]pyridin-3-ylmethyl)-pyridin-2-yl]-amine], with less than 1000 nM.
The compound `FC(F)(F)COc1ncccc1CNc1ccc(Cc2c[nH]c3ncccc23)cn1` [P-0376, [5-(1H-Pyrrolo[2,3-b]pyridin-3-ylmethyl)-pyridin-2-yl]-[2-(2,2,2-trifluoro-ethoxy)-pyridin-3-ylmethyl]-amine] came in with a concentration for half-maximal inhibition (IC50) of less than 1000 nM.
The value for `CCCS(=O)(=O)Nc1cccc(CNc2ccc(Cc3c[nH]c4ncccc34)cn2)c1F` [P-0377, Propane-1-sulfonic acid (2-fluoro-3-{[5-(1H-pyrrolo[2,3-b]pyridin-3-ylmethyl)-pyridin-2-ylamino]-methyl}-phenyl)-amide] was less than 1000 nM.
As to `COc1ccc(CNc2ccc(Cc3c[nH]c4ncccc34)c(F)n2)cn1` [P-0378, [6-Fluoro-5-(1H-pyrrolo[2,3-b]pyridin-3-ylmethyl)-pyridin-2-yl]-(6-methoxy-pyridin-3-ylmethyl)-amine], the IC50 is less than 1000 nM.
For `COc1ccc(CNc2ccc(Cc3c[nH]c4ncc(Cl)cc34)c(F)n2)cn1` [P-0379, [5-(5-Chloro-1H-pyrrolo[2,3-b]pyridin-3-ylmethyl)-6-fluoro-pyridin-2-yl]-(6-methoxy-pyridin-3-ylmethyl)-amine], the 50% inhibitory concentration (IC50) was less than 1000 nM.
Take `Fc1ccc(Cl)cc1CNc1ccc(Cc2c[nH]c3ncccc23)cn1` [P-0382, (5-Chloro-2-fluoro-benzyl)-[5-(1H-pyrrolo[2,3-b]pyridin-3-ylmethyl)-pyridin-2-yl]-amine]: the concentration for half-maximal inhibition (IC50) was less than 1000 nM.
Regarding `CCc1ccccc1CNc1ccc(Cc2c[nH]c3ncccc23)cn1` [P-0383, (2-Ethyl-benzyl)-[5-(1H-pyrrolo[2,3-b]pyridin-3-ylmethyl)-pyridin-2-yl]-amine], the IC50 is less than 1000 nM.
In the case of `CNc1ncccc1CNc1ccc(Cc2c[nH]c3ncccc23)cn1` [P-0385, Methyl-(3-{[5-(1H-pyrrolo[2,3-b]pyridin-3-ylmethyl)-pyridin-2-ylamino]-methyl}-pyridin-2-yl)-amine], the IC50 is less than 1000 nM.
`CS(=O)(=O)c1ccc(CNc2ccc(Cc3c[nH]c4ncccc34)cn2)c(Cl)c1` [P-0387, (2-Chloro-4-methanesulfonyl-benzyl)-[5-(1H-pyrrolo[2,3-b]pyridin-3-ylmethyl)-pyridin-2-yl]-amine] gave a 50% inhibitory concentration (IC50) of less than 1000 nM.
The value for `FC(F)Oc1ccccc1CNc1ncc(Cc2c[nH]c3ncc(Cl)cc23)cn1` [P-0390, [5-(5-Chloro-1H-pyrrolo[2,3-b]pyridin-3-ylmethyl)-pyrimidin-2-yl]-(2-difluoromethoxy-benzyl)-amine] was less than 1000 nM.
Compound `Fc1c(Cl)cccc1CNc1ncc(Cc2c[nH]c3ncc(Cl)cc23)cn1` [P-0392, (3-Chloro-2-fluoro-benzyl)-[5-(5-chloro-1H-pyrrolo[2,3-b]pyridin-3-ylmethyl)-pyrimidin-2-yl]-amine] gave a half-maximal inhibitory concentration (IC50) of less than 1000 nM.
In turn, `Fc1c(CNc2ncc(Cc3c[nH]c4ncc(Cl)cc34)cn2)cccc1C(F)(F)F` [P-0393, [5-(5-Chloro-1H-pyrrolo[2,3-b]pyridin-3-ylmethyl)-pyrimidin-2-yl]-(2-fluoro-3-trifluoromethyl-benzyl)-amine] registered a half-maximal inhibitory concentration (IC50) of less than 1000 nM.
